Here are results for 14 molecules from patent US20260200903A1, “PHARMACEUTICAL COMPOSITION FOR AMELIORATING MALIGNANT DISEASES” (KINKI UNIVERSITY, priority 2020, published 2026).

A value given as a limit tells only on which side of the number the result lay.

Type in all cases: cell-based
Assay [1] has as its system Rec-1 cells (mantle cell lymphoma cell line). The assay is described as follows: Cell death inducing effect on Rec-1 cells, trypan blue staining. The following applies: Rec-1 (mantle cell lymphoma), cell viability. As for the experimental part: Rec-1 cells (mantle cell lymphoma cell line) were cultured under 5% CO2 at 37° C. The culture medium used RPMI-1640 medium with 100 μg/mL penicillin, 100 U/mL streptomycin and fetal bovine serum. Rec-1 cells were seeded into 96-well plates and incubated with each concentration of the compounds was added, and cell viability was determined by the trypan blue staining.
(§1) For controls, only 0.5% DMSO (diluted in PBS) used to dissolve the compounds was added. For each concentration, each bar line is indicated by an arrow with the sign “n, a, 1, 2, 3, 4, 5, 6, 7, 8, 9, 10, 11, 12” from left to right. The “1, 3, 5, 7, 9, 11” are omitted from the graph, but the sign “1” shall be indicated by an arrow between the signs “a” and “2”, the sign “3” between the signs “2” and “4”, and other odd numbers shall likewise be indicated by arrows between even numbers before and after.
(§2) The sign “n” is the norathyriol (formula (n)) administration group, the sign “a” is the mangiferin 8a (formula (a)) administration group, the sign “1” is the yk-7 (formula (1)) administration group, the sign “2” is the yk-8-1 (formula (2)) administration group, the sign “3” is the yk-8-3 (formula (3)) administration group, the sign “4” is the M7 (formula (4)) administration group, the sign “5” is the M9 (formula (5)) administration group, the sign “6” is the M11 (formula (6)) administration group, the sign “7” is the M12 (formula (7)) administration group, the sign “8” is the M14 (formula (8)) administration group, the sign “9” is the M15 (formula (9)) administration group, the sign “10” is the M16 (formula (10)) administration group, the sign “11” is the M18 (formula (11)) administration group, the sign “12” is the M19 (formula (12)) administration group, respectively. The IC50 values for each compound is also listed in the upper right corner of the figure.

The test system of assay [2] is RR1 cells (rituximab-resistant burkitt lymphoma cell line). As to the kind of experiment: Cell death inducing effect on RR1 cells, trypan blue staining. As to conditions: RR1 (Burkkit lymphoma; rituximab resistance), cell viability. On the procedure:
Raji cells, a burkitt lymphoma cell line, were modified to be rituximab-resistant and named RR1 cells.
RR1 cells (rituximab-resistant burkitt lymphoma cell line) were cultured under 5% CO2 at 37° C. The culture medium used RPMI-1640 medium with 100 μg/mL penicillin, 100 U/mL streptomycin and fetal bovine serum. RR-1 cells were seeded into 96-well plates and incubated with each concentration of the compounds was added, and cell viability was determined by the trypan blue staining.
as §1, §2

The subject of the next assay is NF-κB p52 nuclear. As to the kind of experiment: Immunoblotting of NF-κB p52 nuclear in KMS-28BM cells. As to conditions: nuclear fraction, 72 h, same concentrations (0.005-100 μM). As for the experimental part:
Immunoblotting was performed on KMS-28BM cells to investigate the inhibitory effect of each compound administration on NIK inhibition and the activation of IKK, NF-κB p52, and NF-κB p65, which are downstream signals of NIK. As a result, inhibition of NIK activation, inhibition of IKK activity, and inhibition of nuclear translocation of NF-κB p52 and NF-κB p65 were observed (FIG. 15 and FIG. 16).
As a control, compounds untreated KMS-28BM cells were seeded in 150 cm^2 flasks and incubated for 72 h at 37° C. and 5% CO2. KMS-28BM cells were seeded into 150 cm^2 flasks and pre-cultured for 24 h. After incubation, KMS-28BM cells were treated with […], 1 μM norathyriol, 0.5 μM M7 (formula (4)), 1 μM M8 (mangiferin 8a: listed in duplicate), 0.2 μM M9 (formula (5)), 5 μM yk-7 (formula (1)), 0.5 μM yk-8-3 (formula (3)) and 100 μM yk-8-1 (formula (2)) at final concentrations, and incubated for 72 h at 37° C. and 5% CO2. In addition, KMS-28BM cells were also treated with 0.5 μM M19 (formula (12)), 0.5 μM M18 (formula (11)), 0.005 μM M16 (formula (10)), […] (formula (9)), 0.005 μM M14 (formula (8)), 0.05 μM M12 (formula (7)) and […] (formula (6)) at the final concentrations, and incubated for 72 h at 37° C. and 5% CO2. Proteins were extracted from these cell suspensions with cell lysate and used as samples.
The nucleus and cytoplasmic substrate were separated from the cells using the ProteoExtract (registered trademark) Subcellular Proteome Extraction Kit from Merck Ltd. to extract the cytoplasmic and nuclear fractions.
After SDS-PAGE, each sample was transferred to a PVDF membrane and examined using anti-phospho-NIK, anti-NIK, anti-phospho-IKK, anti-IKK, anti-P-actin, anti-NF-κB p52 and anti-NF-κB p65 antibody, and anti-Lamin antibody.
The antibody species is indicated in the vertical direction. Specifically, for anti-phospho-NIK antibody, “Phospho-NIK” was used, for anti-NIK antibody, “NIK” was used, for anti-phospho-IKK antibody, “Phospho-IKK” was used, for anti-IKK antibody, “IKK” was used, for anti-p-actin antibody, “p-actin” was used, for anti-NF-κB p52 antibody, “NF-κB p52 nuclear” was used, for anti-NF-κB p65 antibody, “NF-κB p65 nuclear” was used, and for anti-Lamin antibody, “Lamin” was used.

The next assay relates to CD138. As to the kind of experiment: CD138 expression in KMS-28BM cells, flow cytometry. The following applies: 10 days, concentration lower than the IC50 (0.005-50 μM), compared to the positive control. As for the experimental part: As a control, compounds untreated KMS-28BM cells were seeded in 75 cm^2 flasks and incubated for 10 days at 37° C. and 5% CO2. KMS-28BM cells were seeded into 75 cm^2 flasks and pre-cultured for 4 h. After incubation, KMS-28BM cells were treated with […], 0.05 μM M9, 0.1 μM yk-7, 0.1 μM yk-8-3, 50 μM yk-8-1, 0.5 μM M11, […], 0.005 μM M14, 0.005 μM M15, 0.005 μM M16, 0.5 μM M18, and 0.5 μM M19 at final concentrations, and incubated for 10 days at 37° C. and 5% CO2. This added amount is a concentration lower than the IC50 of the above compounds for KMS-28BM cells. After 10 days of incubation, cells were stained with anti-CD138 antibody, a marker of multiple myeloma grade, and CD138 expression was measured using BD LSRFortessa.
Results are shown in FIG. 17, FIG. 18, FIG. 19 and FIG. 20. The horizontal axis represents the expression level of CD138 and the vertical axis represents the number of cells.

Regarding “1,2′,3′,4′,6-penta-O-propionylmangiferin [Compound 8a, reference compound]”, the IC50 in assay [1] came to 22500 nM; in assay [2], 328 nM. Moreover, in the assay on NF-κB p52 nuclear, the “NF-κB p52 nuclear” value is “decreased”.
Turning to `CCC(=O)OC[C@H]1O[C@@H](c2c(OC(=O)CC)cc3oc4cc(OC(=O)CC)c(OC(=O)CC)cc4c(=O)c3c2OC(=O)CC)[C@H](OC(=O)CC)[C@@H](OC(=O)CC)[C@@H]1OC(=O)CC` [Compound M7, 1,3,2′,3′,4′,6,6′,7-octa-O-propionylmangiferin], the IC50 in assay [1] (Homo sapiens, Rec1) amounted to 2250 nM; in assay [2], 99 nM. The “NF-κB p52 nuclear” value in the assay on NF-κB p52 nuclear is reported as “decreased”. Also, in the assay on CD138, the CD138 expression levels entry was “markedly reduced”.
For `CCC(=O)OC[C@H]1O[C@@H](c2c(O)cc3oc4cc(O)c(O)cc4c(=O)c3c2O)[C@H](OC(=O)CC)[C@@H](OC(=O)CC)[C@@H]1OC(=O)CC` [Compound M9, 2′,3′,4′,6′-tetra-O-propionylmangiferin], in that order: 816 nM, 7 nM, “decreased” and “markedly reduced”.
Consider `CCCC(=O)OC[C@H]1O[C@@H](c2c(OC(=O)CCC)cc3oc4cc(OC(=O)CCC)c(OC(=O)CCC)cc4c(=O)c3c2OC(=O)CCC)[C@H](OC(=O)CCC)[C@@H](OC(=O)CCC)[C@@H]1OC(=O)CCC` [Compound M11, 1,3,2′,3′,4′,6,6′,7-octa-O-butyrylmangiferin], for which the values for the IC50 in assay [1] and in assay [2] were 926 nM and 828 nM, respectively. Also, the “NF-κB p52 nuclear” value in the assay with NF-κB p52 nuclear is recorded as “decreased”. In the assay with CD138, the CD138 expression levels result was “markedly reduced”.
Regarding `CCCC(=O)OC[C@H]1O[C@@H](c2c(O)cc3oc4cc(O)c(O)cc4c(=O)c3c2OC(=O)CCC)[C@H](OC(=O)CCC)[C@@H](OC(=O)CCC)[C@@H]1OC(=O)CCC` [Compound M12, 1,2′,3′,4′,6-penta-O-butyrylmangiferin], the IC50 is 951 nM in assay [1] (Homo sapiens, Rec1) and 15 nM in assay [2]. In addition, the “NF-κB p52 nuclear” value with NF-κB p52 nuclear is reported as “decreased”. The CD138 expression levels result in the assay on CD138 is “markedly reduced”.
For `CCCC(=O)OC[C@H]1O[C@@H](c2c(O)cc3oc4cc(O)c(O)cc4c(=O)c3c2O)[C@H](OC(=O)CCC)[C@@H](OC(=O)CCC)[C@@H]1OC(=O)CCC` [Compound M14, 2′,3′,4′,6′-tetra-O-butyrylmangiferin], in that order: 24 nM, 8 nM, “decreased” and “markedly reduced”.
As to `CC(C)(C)C(=O)OC[C@H]1O[C@@H](c2c(O)cc3oc4cc(O)c(O)cc4c(=O)c3c2O)[C@H](OC(=O)C(C)(C)C)[C@@H](OC(=O)C(C)(C)C)[C@@H]1OC(=O)C(C)(C)C` [Compound M15, 2′,3′,4′,6′-tetra-O-pivaloylmangiferin], the IC50 in assay [1] (Homo sapiens, Rec1) came out at 32 nM; in assay [2] it was 11 nM. Also, the “NF-κB p52 nuclear” value in the assay on NF-κB p52 nuclear is given as “decreased”. In addition, the CD138 expression levels entry with CD138 is reported as “markedly reduced”.
For the molecule `CCCCO[C@@H]1[C@@H](OCCCC)[C@H](c2c(O)cc3oc4cc(O)c(O)cc4c(=O)c3c2O)O[C@H](COC(=O)CCC)[C@H]1OC(=O)CCC` [Compound M16, 2′,3′-di-O-butyl-4′,6′-di-O-butyrylmangiferin], the IC50 in assay [1] (Homo sapiens, Rec1) was 20 nM; in assay [2], 7 nM. Moreover, the “NF-κB p52 nuclear” value with NF-κB p52 nuclear was “decreased”. Moreover, the CD138 expression levels entry in the assay with CD138 is given as “markedly reduced”.
As to `O=c1c2cc(O)c(O)cc2oc2cc(O)cc(OCCO)c12` [Compound M18, 3,6,7-trihydroxy-1-(2-hydroxyethoxy)-9H-xanthen-9-one], the IC50 in assay [1] (Homo sapiens, Rec1) is 9120 nM; in assay [2], 651 nM. The “NF-κB p52 nuclear” value with NF-κB p52 nuclear is “decreased”. Further, the CD138 expression levels result in the assay with CD138 was “markedly reduced”.
Taken in the same sequence, the figures for `C=CCOc1cc(O)cc2oc3cc(O)c(O)cc3c(=O)c12` [Compound M19, 1-allyloxy-3,6,7-trihydroxy-9H-xanthen-9-one] were 21600 nM, 791 nM, “decreased” and “markedly reduced”.
Take `O=c1c2cc(O)c(O)cc2oc2cc(O)cc(O)c12` [norathyriol, reference compound]: the IC50 amounted to 15800 nM in assay [1] (Homo sapiens, Rec1) and 737 nM in assay [2]. For the same molecule, the “NF-κB p52 nuclear” value in the assay with NF-κB p52 nuclear was “decreased”.
As to `CCCCC(=O)OC[C@H]1O[C@@H](c2c(O)cc3oc4cc(O)c(O)cc4c(=O)c3c2O)[C@H](OC(=O)CCCC)[C@@H](OC(=O)CCCC)[C@@H]1OC(=O)CCCC` [yk-7, 2′,3′,4′,6′-tetra-O-valerylmangiferin], the IC50 in assay [1] (Homo sapiens, Rec1) was determined as 2600 nM; in assay [2] it was 42 nM. Moreover, the “NF-κB p52 nuclear” value in the assay with NF-κB p52 nuclear is “decreased”. For the same molecule, the CD138 expression levels result in the assay on CD138 was “markedly reduced”.
Turning to `CCCCC(=O)OC[C@H]1O[C@@H](c2c(OC(=O)CCCC)cc3oc4cc(OC(=O)CCCC)c(OC(=O)CCCC)cc4c(=O)c3c2OC(=O)CCCC)[C@H](OC(=O)CCCC)[C@@H](OC(=O)CCCC)[C@@H]1OC(=O)CCCC` [yk-8-1, 1,3,2′,3′,4′,6,6′,7-octa-O-valerylmangiferin], the values for the IC50 in assay [1] and in assay [2] were > 100000 nM and 21400 nM, respectively. In addition, the “NF-κB p52 nuclear” value in the assay on NF-κB p52 nuclear was “decreased”. In addition, the CD138 expression levels result in the assay on CD138 is recorded as “markedly reduced”.
Consider `CCCCC(=O)OC[C@H]1O[C@@H](c2c(O)cc3oc4cc(O)c(O)cc4c(=O)c3c2OC(=O)CCCC)[C@H](OC(=O)CCCC)[C@@H](OC(=O)CCCC)[C@@H]1OC(=O)CCCC` [yk-8-3, 1,2′,3′,4′,6-penta-O-valerylmangiferin], for which the half-maximal inhibitory concentration (IC50) in assay [1] (Homo sapiens, Rec1) was 3310 nM; in assay [2], 72 nM. In the assay on NF-κB p52 nuclear, the “NF-κB p52 nuclear” value is “decreased”. Further, in the assay on CD138, the CD138 expression levels entry is on record as “markedly reduced”.

One may read the IC50 as the concentration that inhibits the measured activity by half. The low end stands for higher potency, the high end for lower potency.
